Measurements published in US8003570B2, “Composition and method for killing nematodes and weeds in soils” (priority 2006, dated 2011).

Key:
Format in all cases: in vivo
tomatoes [1] = assay: Example 1 field trial in Florida, tomatoes under plastic mulch: plant height, production, root weight; settings: methyl bromide 400 pounds per acre, compositions 5 liters per acre
Procedure: (§1) Field trials were conducted in Florida where tomatoes are grown under a plastic mulch and an irrigation system, called “T” tapes, which is used to irrigate the crop under the plastic mulch. Design of the experiment were three rows of a standard methyl bromide applications as the smallest replication. Four such sets of three rows were used as replicated applications. There was a zero treatment. Methyl bromide gas used at a 400 pounds per acre basis as the control and the compositions A, B, C. and D were used at a 5 liters per acre basis. Composition A was injected through the “T” tape one day after methyl bromide was injected.
(§2) The plants growing in the middle rows only of these three rows, were used to collect data. In the middle rows, 14 plants were randomly selected for measuring. The height of the plants were collected at 30 days. Starting at fruit harvest, fruits collected from these 14 plants were cumulatively added to give the total production data. At the end of harvest these plants were carefully dug up and roots carefully washed to weigh the total roots and also measure the degree of infection in the roots. Soil samples were also collected from the holes where the plants were dug up and analyzed for soil nematode population. Finally, all nut sedge plants that came through the plastic mulch in the entire 150-yard middle rows were counted as a “strike”, a degree of insufficient kill of the rhizomes.

nematodes [2] = assay: Example 1 field trial in Florida: soil nematode population and root infection; settings: methyl bromide 400 pounds per acre
Procedure: as §1, §2

nut sedge rhizomes [3] = assay: Example 1 field trial in Florida: nut sedge strikes through plastic mulch; settings: methyl bromide 400 pounds per acre
Procedure: as §1
The plants growing in the middle rows only of these three rows, were used to collect data. In the middle rows, 14 plants were randomly selected for measuring. The height of the plants were collected at 30 days. Starting at fruit harvest, fruits collected from these 14 plants were cumulatively added to give the total production data. […] Soil samples were also collected from the holes where the plants were dug up and analyzed for soil nematode population. Finally, all nut sedge plants that came through the plastic mulch in the entire 150-yard middle rows were counted as a “strike”, a degree of insufficient kill of the rhizomes.

tomatoes [4] = assay: Example II field trial, methyl bromide dose reduction with or without composition A: tomato growth and production
Procedure: as §1, §2
(§3) In this experiment, methyl bromide was applied at full dose of 400 pounds per acre of the gas and the treatments used 200 pounds of methyl bromide per acre alone and with 5 liters of composition A per acre, 100 pounds of methyl bromide alone and with composition A at 5 liters per acre, 50 pounds of methyl bromide with 5 liters of composition A and the last treatment of 5 liters of composition A per acre by itself. Tomatoes were planted 20 days after methyl bromide was injected under the plastic mulch. Composition A was injected through the “T” tape one day after methyl bromide was injected. The design of Experiment II was the same as in Experiment I, and the data collected were as in the Experiment I. The results of this experiment are shown in Table II.

nematodes [5] = assay: Example II field trial: soil nematode population and root infection
Procedure: as §1, §2, §3

nut sedge rhizomes [6] = assay: Example II field trial: nut sedge strikes
Procedure: as §1, §2, §3

tomatoes [7] = assay: Example II field trial, methyl bromide dose reduction with or without composition A: tomato growth and production; settings: M.B. 50 lbs. alone

CBr [Methyl Bromide, Methyl bromide]
Weight of Roots (tomatoes [1]; end of harvest): 165 gr.
Height at 30 Days (tomatoes [1]): 2.6 feet
Production Per Plant (tomatoes [1]): 16 lbs.
nematode control in the soil (nematodes [2]; Example 1 discussion): superior to compositions A, B, C and D
Soil Nematode (nematodes [2]; soil at end of harvest, compositions 5 liters per acre): 700/10 gr
Infection in Roots (nematodes [2]; tomato roots, end of harvest, compositions 5 liters per acre): zero
efficacy in controlling the weeds (nut sedge rhizomes [3]; Example 1 discussion): same efficacy in controlling the weeds as composition A
Live nut sedge in 150 yards (nut sedge rhizomes [3]; shoots piercing plastic mulch in 150-yard middle rows, compositions 5 liters per acre): 12/150 strikes″.
Height at 30 Days (tomatoes [4]; M.B. 100 lbs. per acre alone): 2.2 ft.
Production Per Plant (tomatoes [4]; M.B. 100 lbs. per acre alone): 5.1 lbs.
Weight of Roots (tomatoes [4]; M.B. 100 lbs. per acre alone): 90 gr.
Height at 30 Days (tomatoes [4]; M.B. 200 lbs. per acre alone): 2.7 ft.
Production Per Plant (tomatoes [4]; M.B. 200 lbs. per acre alone): 6.1 lbs.
Weight of Roots (tomatoes [4]; M.B. 200 lbs. per acre alone): 120 gr.
Height at 30 Days (tomatoes [4]; M.B. 400 lbs per acre): 3 ft.
Production Per Plant (tomatoes [4]; M.B. 400 lbs per acre): 8.6 lbs.
Weight of Roots (tomatoes [4]; M.B. 400 lbs per acre): 170 gr.
Infection in Roots (nematodes [5]; M.B. 50 lbs. alone): high
Soil Nematode (nematodes [5]; M.B. 50 lbs. alone): 16,000
Infection in Roots (nematodes [5]; M.B. 100 lbs. per acre alone): high
Soil Nematode (nematodes [5]; M.B. 100 lbs. per acre alone): 2200/10 gr.
Infection in Roots (nematodes [5]; M.B. 200 lbs. per acre alone): slight
Soil Nematode (nematodes [5]; M.B. 200 lbs. per acre alone): 1056/10 gr.
Infection in Roots (nematodes [5]; M.B. 400 lbs per acre): zero
Soil Nematode (nematodes [5]; M.B. 400 lbs per acre): zero
Live nut sedge in 150 yards (nut sedge rhizomes [6]; M.B. 50 lbs. alone): 38 strikes
Live nut sedge in 150 yards (nut sedge rhizomes [6]; M.B. 100 lbs. per acre alone): 28 strikes
Live nut sedge in 150 yards (nut sedge rhizomes [6]; M.B. 200 lbs. per acre alone): 18 strikes
Live nut sedge in 150 yards (nut sedge rhizomes [6]; M.B. 400 lbs per acre): 7 strikes
Height at 30 Days (tomatoes [7]): 2 ft.
Production Per Plant (tomatoes [7]): 4 lbs.
Weight of Roots (tomatoes [7]): 60
